Measured values as given in ChEMBL document CHEMBL1201862, “PubChem BioAssay data set” (2004).
Activity calls are given as the source filed them.

Key:
[1] = target: Luciferin 4-monooxygenase (Photinus pyralis, UniProt P08659); assay: Counter Screen for Luciferase-based Assay Positives. [Related pubchem assays: 620, 618, 411 ]
[2] = system: HT-1080; assay: HT1080 cell viability loss – fluorescence readout (AID 620); assay type: functional, cell-based; conditions: Homo sapiens
[3] = target: T1, Oxysterols receptor LXR-beta (Homo sapiens, UniProt P55055); assay type: functional, cell-based;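 also: Cell-based luminescence dose-response assay of agonist activity at LXR, run as a confirmatory counterscreen to a daf-12 agonist screen; HEK293 cells with Gal4-LXR fusion and GAL4-driven luciferase reporter; agonist potency from rising luciferase signal of a Gal4-LXR reporter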
T1 sequence (P55055 whole entry): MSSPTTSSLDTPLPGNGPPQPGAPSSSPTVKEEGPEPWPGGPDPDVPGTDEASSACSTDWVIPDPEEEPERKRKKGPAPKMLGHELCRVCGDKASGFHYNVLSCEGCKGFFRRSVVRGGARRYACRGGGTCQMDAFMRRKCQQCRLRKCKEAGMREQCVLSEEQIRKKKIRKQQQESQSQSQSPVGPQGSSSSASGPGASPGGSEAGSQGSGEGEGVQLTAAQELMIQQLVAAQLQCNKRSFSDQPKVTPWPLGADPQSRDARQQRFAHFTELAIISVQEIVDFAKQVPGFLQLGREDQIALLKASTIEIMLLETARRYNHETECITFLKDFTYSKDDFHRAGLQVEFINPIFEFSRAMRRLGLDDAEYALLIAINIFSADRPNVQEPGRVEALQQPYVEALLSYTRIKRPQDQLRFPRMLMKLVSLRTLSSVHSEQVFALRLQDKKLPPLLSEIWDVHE

[4] = cells
[5] = target: FAD-linked sulfhydryl oxidase ALR (Homo sapiens, UniProt P55789); assay: ALR-catalysed DTT oxidation blockers – biochemical, H2O2 detection, luminescence, cherry-pick, dose response (AID 493248)
[6] = potency of ADAM10 substrate cleavage blockers – biochemical, QFRET, dose response (AID 743254);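 also: ADAM10 enzyme with the DM2 quenched FRET peptide as substrate; EDANS fluorescence gain as the protease cuts the substrate; inhibitor potency against ADAM10 proteolytic activity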
[7] = target: T2, Disintegrin and metalloproteinase domain-containing protein 17 (Homo sapiens, UniProt P78536); assay: exosite inhibitors of ADAM17, dose response, biochemical (AID 743260)
[8] = inhibition of ADAM10 peptide cleavage – biochemical, FRET peptide substrate, recombinant human ADAM10, selectivity assay for ADAM17 exosite inhibitor project, dose response (AID 743259);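 also: ADAM10 enzyme cleaving a FRET peptide substrate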
[9] = target: T2, Disintegrin and metalloproteinase domain-containing protein 17; assay: inhibition of ADAM17 substrate cleavage – biochemical, quenched FRET substrate, counter-screen for ADAM10 exosite inhibitor project, dose response (AID 743253)
[10] = viability of uninfected HEp-2 cells – cell-based, HTS, cytotoxicity control for RSV inhibitor project, dose response (AID 2410); assay type: functional; conditions: human respiratory syncytial virus
[11] = system: Streptococcus sp. 'group A'; assay: Streptococcus pyogenes SK(-)GAS viability under kanamycin – luminescence, BacTiterGlo, confirmation, counter-screen for streptokinase expression inhibitor project, dose response (AID 1900); assay type: functional, organism-based
[12] = target: T3, Streptokinase A (Streptococcus pyogenes serotype M1, UniProt P10520); assay: viability-normalized secreted streptokinase activity reduction – plasminogen activation absorbance, OD405, dose response (AID 1914); assay type: functional, Streptococcus pyogenes M1 GAS;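 also: secreted streptokinase activity via plasminogen activation per viability signal from cell pellet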
T3 sequence (P10520 whole entry): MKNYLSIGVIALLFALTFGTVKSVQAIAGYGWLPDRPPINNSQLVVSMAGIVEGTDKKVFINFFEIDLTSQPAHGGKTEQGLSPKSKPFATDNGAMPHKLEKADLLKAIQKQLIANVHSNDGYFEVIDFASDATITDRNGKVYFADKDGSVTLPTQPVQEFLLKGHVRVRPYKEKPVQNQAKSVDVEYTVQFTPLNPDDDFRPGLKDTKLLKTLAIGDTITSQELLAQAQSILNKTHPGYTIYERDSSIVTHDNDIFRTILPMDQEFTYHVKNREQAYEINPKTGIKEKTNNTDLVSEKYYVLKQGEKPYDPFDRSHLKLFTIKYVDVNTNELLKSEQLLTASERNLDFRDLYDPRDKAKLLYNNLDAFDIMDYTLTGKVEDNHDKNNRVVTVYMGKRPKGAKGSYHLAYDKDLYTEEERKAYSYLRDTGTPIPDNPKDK

[13] = system: Streptococcus; assay: GAS UMAA2166 growth inhibition – luminescence, BacTiterGlo, counter-screen for streptokinase expression inhibitor project, dose response (AID 1915); assay type: functional, organism-based;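 also: potency for reduction of bacterial viability or growth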
[14] = Luminescence Cell-Based Dose Retest to Confirm Inhibitors of Cancer Stem Cells. [Related pubchem assays (depositor defined):AID2717, AID2721]; assay type: functional; conditions: Homo sapiens
[15] = reduced cellular PGC1a acetyl-lysine signal – cell-based, cherry-picked samples, dose response (AID 720514); assay type: functional;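 also: potency may reflect raised or lowered acetylation signal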
[16] = target: Peroxisome proliferator-activated receptor gamma/Nuclear receptor corepressor 2 (Homo sapiens, UniProt P37231+Q9Y618); assay: Counterscreen for NR2E3 inverse agonists: TR-FRET-based biochemical high throughput dose response assay to identify inverse agonists of the interaction between peroxisome proliferator-activated receptor gamma (PPARg) and nuclear receptor co-repressor 2 (NCOR2).; assay type: functional
[17] = target: Photoreceptor-specific nuclear receptor (Homo sapiens, UniProt Q9Y5X4); assay: ligands suppressing NR2E3 nuclear receptor activity – biochemical, TR-FRET, dose response (AID 463256); assay type: functional
[18] = growth inhibition of yeast DHODH-expressing 3D7 parasites – SYBR Green, dry powder samples, dose response (AID 1159570); assay type: functional, cell-based;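 also: parasite growth measured after 72 hours of compound exposure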
[19] = toxicity to human HepG2 hepatoma cells – cell-based, plate reader, dry powder samples, cytotoxicity control, dose response (AID 1159569); assay type: functional;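 also: inhibitor potency with signal falling toward the positive control level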
[20] = P. falciparum Dd2 growth inhibitors, dose response, SYBR Green, cherry-picked samples (AID 1159567); assay type: functional, cell-based
[21] = Dd2 malaria parasite growth inhibition potency – SYBR Green, dry powder samples, dose response (AID 1159566); assay type: functional, cell-based;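 also: potency for growth inhibition with lower SYBR green DNA signal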
[22] = growth inhibition of PfATP4-mutant resistant parasites – NITD609-resistant line, SYBR Green, dry powder, dose response (AID 1159571); assay type: functional, cell-based;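 also: parasites synchronized at ring stage by sorbitol before testing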
[23] = target: T4, Caspase-6 (Homo sapiens, UniProt P55212); assay: inhibition of CASP6 peptide cleavage – biochemical, VEID-R110 fluorescence, cherry-pick, dose response (AID 720632)
T4 sequence (P55212 whole entry): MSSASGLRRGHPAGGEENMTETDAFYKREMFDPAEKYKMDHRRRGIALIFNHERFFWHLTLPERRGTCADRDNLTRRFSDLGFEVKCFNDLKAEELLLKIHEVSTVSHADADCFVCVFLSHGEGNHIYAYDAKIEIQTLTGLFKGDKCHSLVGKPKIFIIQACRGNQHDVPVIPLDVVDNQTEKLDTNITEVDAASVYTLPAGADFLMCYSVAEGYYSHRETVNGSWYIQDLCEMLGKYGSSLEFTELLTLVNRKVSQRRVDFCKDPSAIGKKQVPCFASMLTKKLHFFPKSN

Luciferin 4-monooxygenase, sequence (P08659 whole entry): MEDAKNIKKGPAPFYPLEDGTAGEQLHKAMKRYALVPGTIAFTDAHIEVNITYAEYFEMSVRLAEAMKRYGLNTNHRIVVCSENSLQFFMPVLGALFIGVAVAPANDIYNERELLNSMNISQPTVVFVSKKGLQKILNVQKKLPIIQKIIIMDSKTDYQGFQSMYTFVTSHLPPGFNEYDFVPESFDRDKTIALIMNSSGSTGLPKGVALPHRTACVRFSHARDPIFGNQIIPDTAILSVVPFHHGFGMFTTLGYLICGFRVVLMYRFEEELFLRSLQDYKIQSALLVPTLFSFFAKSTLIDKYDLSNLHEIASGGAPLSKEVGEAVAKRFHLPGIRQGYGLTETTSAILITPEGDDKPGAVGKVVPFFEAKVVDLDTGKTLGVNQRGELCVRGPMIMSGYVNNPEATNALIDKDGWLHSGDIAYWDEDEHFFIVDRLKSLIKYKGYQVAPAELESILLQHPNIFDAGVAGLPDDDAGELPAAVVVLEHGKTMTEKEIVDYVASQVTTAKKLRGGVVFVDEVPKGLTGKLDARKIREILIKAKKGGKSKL
Photoreceptor-specific nuclear receptor, sequence (Q9Y5X4 whole entry): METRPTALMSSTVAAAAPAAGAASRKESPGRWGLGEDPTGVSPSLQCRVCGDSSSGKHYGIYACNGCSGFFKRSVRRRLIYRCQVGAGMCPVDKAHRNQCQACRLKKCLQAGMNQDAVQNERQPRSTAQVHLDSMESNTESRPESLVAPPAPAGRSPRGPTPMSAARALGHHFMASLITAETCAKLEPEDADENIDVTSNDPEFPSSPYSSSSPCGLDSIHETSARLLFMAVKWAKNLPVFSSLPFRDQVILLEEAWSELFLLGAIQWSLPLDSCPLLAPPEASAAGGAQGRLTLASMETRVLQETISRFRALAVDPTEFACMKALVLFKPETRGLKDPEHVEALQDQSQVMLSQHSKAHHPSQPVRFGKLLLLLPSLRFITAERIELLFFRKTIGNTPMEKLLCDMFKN
T2 sequence (P78536 whole entry, the tested form may be a part): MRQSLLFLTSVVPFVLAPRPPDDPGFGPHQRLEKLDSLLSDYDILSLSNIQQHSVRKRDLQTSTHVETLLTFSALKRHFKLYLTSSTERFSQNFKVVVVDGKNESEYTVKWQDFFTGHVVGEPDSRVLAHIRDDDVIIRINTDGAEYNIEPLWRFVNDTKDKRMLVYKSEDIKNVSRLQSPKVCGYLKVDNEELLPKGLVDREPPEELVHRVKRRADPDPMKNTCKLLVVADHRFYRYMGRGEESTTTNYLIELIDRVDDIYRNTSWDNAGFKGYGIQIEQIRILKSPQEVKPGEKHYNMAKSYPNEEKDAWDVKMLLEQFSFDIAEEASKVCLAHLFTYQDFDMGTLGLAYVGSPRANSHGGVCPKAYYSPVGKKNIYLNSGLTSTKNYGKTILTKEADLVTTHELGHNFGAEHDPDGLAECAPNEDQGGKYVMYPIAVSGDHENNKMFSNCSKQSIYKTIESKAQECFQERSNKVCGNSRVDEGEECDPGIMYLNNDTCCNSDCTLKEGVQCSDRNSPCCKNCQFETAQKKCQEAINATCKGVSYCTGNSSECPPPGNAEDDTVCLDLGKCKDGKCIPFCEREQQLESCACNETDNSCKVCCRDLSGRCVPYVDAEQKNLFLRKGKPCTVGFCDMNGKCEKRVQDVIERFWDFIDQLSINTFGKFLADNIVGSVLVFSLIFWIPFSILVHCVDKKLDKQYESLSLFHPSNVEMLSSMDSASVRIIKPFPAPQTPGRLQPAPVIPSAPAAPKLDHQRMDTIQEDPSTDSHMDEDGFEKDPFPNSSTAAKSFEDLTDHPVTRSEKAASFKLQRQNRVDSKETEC
Peroxisome proliferator-activated receptor gamma/Nuclear receptor corepressor 2, sequence (P37231 whole entry): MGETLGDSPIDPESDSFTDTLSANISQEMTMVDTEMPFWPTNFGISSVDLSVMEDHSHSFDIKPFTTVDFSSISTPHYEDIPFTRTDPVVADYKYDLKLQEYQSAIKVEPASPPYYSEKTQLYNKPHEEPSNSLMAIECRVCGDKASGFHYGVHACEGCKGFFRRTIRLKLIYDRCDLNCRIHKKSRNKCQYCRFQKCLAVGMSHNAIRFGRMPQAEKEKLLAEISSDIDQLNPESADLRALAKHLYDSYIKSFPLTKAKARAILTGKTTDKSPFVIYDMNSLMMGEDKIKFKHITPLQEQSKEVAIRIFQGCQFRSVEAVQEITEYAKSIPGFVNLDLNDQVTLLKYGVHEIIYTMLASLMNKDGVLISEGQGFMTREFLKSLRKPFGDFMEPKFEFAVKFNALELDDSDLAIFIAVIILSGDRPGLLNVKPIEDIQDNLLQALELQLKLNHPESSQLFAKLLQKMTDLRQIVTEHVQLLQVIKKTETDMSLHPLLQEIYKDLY
Peroxisome proliferator-activated receptor gamma/Nuclear receptor corepressor 2, sequence (Q9Y618 whole entry): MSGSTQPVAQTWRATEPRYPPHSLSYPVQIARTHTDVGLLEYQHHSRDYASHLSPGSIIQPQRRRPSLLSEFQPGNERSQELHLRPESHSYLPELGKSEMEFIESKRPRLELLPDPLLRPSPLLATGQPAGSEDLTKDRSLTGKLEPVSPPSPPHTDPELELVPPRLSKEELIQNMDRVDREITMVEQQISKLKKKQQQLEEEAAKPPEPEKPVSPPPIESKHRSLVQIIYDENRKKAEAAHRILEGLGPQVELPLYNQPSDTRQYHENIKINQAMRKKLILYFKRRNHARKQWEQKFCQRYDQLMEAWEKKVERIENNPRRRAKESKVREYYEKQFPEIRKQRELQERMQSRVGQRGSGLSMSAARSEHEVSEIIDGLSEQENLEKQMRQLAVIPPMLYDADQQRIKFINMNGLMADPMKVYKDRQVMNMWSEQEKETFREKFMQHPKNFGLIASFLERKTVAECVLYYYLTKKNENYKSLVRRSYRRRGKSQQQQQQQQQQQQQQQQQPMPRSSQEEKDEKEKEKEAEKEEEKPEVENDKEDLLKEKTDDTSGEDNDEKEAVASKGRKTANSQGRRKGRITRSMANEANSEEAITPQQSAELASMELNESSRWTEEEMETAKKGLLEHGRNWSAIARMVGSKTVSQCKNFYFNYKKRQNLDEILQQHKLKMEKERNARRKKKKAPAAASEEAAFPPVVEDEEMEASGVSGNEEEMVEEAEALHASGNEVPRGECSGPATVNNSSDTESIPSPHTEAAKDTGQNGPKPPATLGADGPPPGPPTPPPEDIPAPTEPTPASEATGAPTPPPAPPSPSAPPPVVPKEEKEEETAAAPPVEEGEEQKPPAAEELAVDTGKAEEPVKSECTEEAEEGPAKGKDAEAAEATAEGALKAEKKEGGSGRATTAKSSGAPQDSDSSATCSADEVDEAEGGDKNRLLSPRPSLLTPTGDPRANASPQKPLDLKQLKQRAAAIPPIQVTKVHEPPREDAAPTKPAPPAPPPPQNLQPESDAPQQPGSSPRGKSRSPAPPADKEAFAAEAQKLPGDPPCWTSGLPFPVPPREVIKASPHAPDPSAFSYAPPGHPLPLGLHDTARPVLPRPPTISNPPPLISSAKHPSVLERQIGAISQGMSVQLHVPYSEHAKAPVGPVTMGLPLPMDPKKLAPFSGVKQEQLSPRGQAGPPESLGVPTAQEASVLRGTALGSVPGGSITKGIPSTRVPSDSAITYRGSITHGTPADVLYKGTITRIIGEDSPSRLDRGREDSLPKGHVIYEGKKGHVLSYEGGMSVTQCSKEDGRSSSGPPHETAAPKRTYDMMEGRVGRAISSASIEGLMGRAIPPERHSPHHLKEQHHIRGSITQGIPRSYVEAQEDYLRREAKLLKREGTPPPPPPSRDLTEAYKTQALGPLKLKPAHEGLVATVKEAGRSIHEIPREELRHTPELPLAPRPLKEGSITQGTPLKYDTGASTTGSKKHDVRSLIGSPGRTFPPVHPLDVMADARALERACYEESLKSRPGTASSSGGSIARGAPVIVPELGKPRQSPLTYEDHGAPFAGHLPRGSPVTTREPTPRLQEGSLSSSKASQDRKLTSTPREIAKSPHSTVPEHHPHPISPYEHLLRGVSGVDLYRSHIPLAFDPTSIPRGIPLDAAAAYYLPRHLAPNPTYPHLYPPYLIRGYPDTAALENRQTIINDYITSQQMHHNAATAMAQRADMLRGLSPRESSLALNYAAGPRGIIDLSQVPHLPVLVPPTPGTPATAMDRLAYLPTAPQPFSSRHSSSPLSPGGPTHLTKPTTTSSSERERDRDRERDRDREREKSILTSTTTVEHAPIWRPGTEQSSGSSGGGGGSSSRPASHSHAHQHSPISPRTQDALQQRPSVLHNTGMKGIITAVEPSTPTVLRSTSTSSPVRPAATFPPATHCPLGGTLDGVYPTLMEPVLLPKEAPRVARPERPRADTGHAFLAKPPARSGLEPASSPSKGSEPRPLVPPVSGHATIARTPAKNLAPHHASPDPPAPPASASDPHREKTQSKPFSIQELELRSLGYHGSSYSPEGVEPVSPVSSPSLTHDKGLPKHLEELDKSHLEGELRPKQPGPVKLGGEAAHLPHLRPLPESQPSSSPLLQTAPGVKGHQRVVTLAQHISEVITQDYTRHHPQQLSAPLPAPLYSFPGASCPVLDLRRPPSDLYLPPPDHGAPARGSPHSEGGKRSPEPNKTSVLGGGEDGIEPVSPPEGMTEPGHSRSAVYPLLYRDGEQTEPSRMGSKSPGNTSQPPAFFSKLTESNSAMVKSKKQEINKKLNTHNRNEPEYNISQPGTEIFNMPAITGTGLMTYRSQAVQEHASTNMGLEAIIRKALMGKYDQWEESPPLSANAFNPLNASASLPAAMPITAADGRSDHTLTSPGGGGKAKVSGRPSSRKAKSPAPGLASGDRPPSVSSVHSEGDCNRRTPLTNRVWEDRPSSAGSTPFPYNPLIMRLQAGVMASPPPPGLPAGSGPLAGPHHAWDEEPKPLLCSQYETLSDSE
FAD-linked sulfhydryl oxidase ALR, sequence (P55789 whole entry): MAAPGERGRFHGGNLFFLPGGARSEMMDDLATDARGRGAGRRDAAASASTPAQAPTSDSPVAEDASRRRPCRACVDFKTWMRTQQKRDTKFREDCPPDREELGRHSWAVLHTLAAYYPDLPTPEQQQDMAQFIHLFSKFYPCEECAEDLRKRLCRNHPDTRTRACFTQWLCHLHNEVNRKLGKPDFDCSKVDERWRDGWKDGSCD

In the case of Cc1cc(C)c2c(N)c(C(=O)Nc3nccs3)sc2n1, the EC50 [1] is reported as > 100 µM (not active), the EC50 [2] is reported as > 50 µM (not active) and the EC50 [3] is reported as > 67.5 µM (inactive). For the same compound, the EC50 [4] was > 67.5 µM (inactive).
With O=C(NO)c1ccc(OC(F)F)cc1 the AC50 [5] was 4.38 µM (active), the IC50 [6] was 37 µM (inactive) and the IC50 [7] was 29.5 µM (inactive). For the same compound, the IC50 [8] was 40.2 µM (inactive) and the IC50 [9] was 36.5 µM (inactive).
With Oc1ccc(/C=N/Nc2nc(-c3ccc(Cl)cc3)cc(C(F)(F)F)n2)cc1 the CC50 [10] was 13.4 µM (active), the EC50 [11] was 12.1 µM (active) and the EC50 [12] was 16.3 µM (active). For the same compound, the EC50 [13] was > 150 µM (not active), the AC50 [14] was 4.06 µM (active) and the AC50 [15] was 31.7 µM (active).
In the case of COc1cnn(-c2ccccc2)c(=O)c1SCc1ccc(Cl)c(Cl)c1, the IC50 [16] is reported as 5.85 µM (active) and the IC50 [17] is reported as 5 µM (active).
With Cc1ccc(S(=O)(=O)N2C[C@@H]3N[C@H](C2)[C@H]3c2ccc(-c3ccncc3)cc2)cc1 the AC50 [18] was 1.26 µM (active), the AC50 [19] was 82.3 µM (active) and the AC50 [20] was 1.37 µM (active). For the same compound, the AC50 [21] was 1.03 µM (active) and the AC50 [22] was 1.67 µM (active).
In the case of O=C(CCc1nc(O)c2c3c(sc2n1)CCCC3)NCC(=O)Nc1ccccc1Br, the AC50 [23] is reported as 26.8 µM (active).
In the case of CS(=O)(=O)N(CC(=O)N1CCC(C(N)=O)CC1)c1ccc(Oc2ccccc2)cc1, the IC50 [16] is reported as 0.792 µM (active) and the IC50 [17] is reported as 1.05 µM (active).
For C=CCn1c(C)cc(C(=O)CSc2ccc(NC(C)=O)cc2)c1C, the EC50 [1] was 0.77 µM (active) and the EC50 [2] was > 50 µM (not active).
